Earlier results in patent US20220079896A1, “DELAYED RELEASE COMPOSITIONS” (AMNEAL COMPLEX PRODUCTS RESEARCH LLC, priority 2020, published 2022).

Row | Compound | mean single-dose terminal elimination half-life
1 | NC(=O)C[S@@+]([O-])C(c1ccccc1)c1ccccc1 [Armodafinil, (−)-2-[(R)-(diphenylmethyl)sulfinyl] acetamide] | approximately 13 hours
2 | NC(=O)C[S+]([O-])C(c1ccccc1)c1ccccc1 (centres unmarked) [modafinil] | approximately 13 hours
